Values of other authors, collected in article PMC11070408, “Bifunctional octadentate pseudopeptides as Zirconium-89 chelators for immuno-PET applications” (EJNMMI Radiopharmacy and Chemistry, 2024).

Set-up: method as in Sarbisheh and Salih [2020]
Conditions: ref Sarbisheh and Salih [2020]

solubility in water: poor
Compound: CC(=O)N(O)CCCCCNC(=O)CCC(=O)N(O)CCCCCNC(=O)CCC(=O)N(O)CCCCCNC(=O)CCC(=O)NCC(CNC(=O)CCC(=O)NCCCCCN(O)C(=O)CCC(=O)NCCCCCN(O)C(=O)CCC(=O)NCCCCCN(O)C(C)=O)Cc1ccc([N+](=O)[O-])cc1 [DFO2]
